In patent EP2243478A1, “PHARMACEUTICAL COMPOSITION COMBINING AN ANTIARTHRITIC AGENT AND AN INTERLEUKIN-1 INHIBITING AGENT, WHICH CAN BE USED TO CONTROL AND TREAT OSTEOARTHRITIS AND RELATED DISEASES” (World Trade Import-Export, WTIE A.G., priority 2007, dated 2009):

Assays:
pain = conditions: dose from 2 to 4 gr/day; cited from earlier work
[1] = cited from earlier work
[2] = cited from earlier work; remark: listed apart in the source
[3] = in vivo; cited from earlier work
patients with hip OA = experiment: comparative clinical study of Diacerein, Chondroitin and the combination Diacerein/Chondroitin, 6 month follow-up; format: in vivo
Experimental: A comparative clinical study in patients with hip OA was carried out with a 6 month term for follow-up. The study compared the efficacy of single Diacerein administration, single chondroitin and a combination of Diacerein/Chondroitin. The study included 120 patients which were divided in 3 treatment groups: • Groups 1: received Diacerein 50 mg administration twice a day. • Group 2: received Chondroitin 600 mg administration twice a day. • Group 3 : received Diacerein 50 mg /Chondroitin 600 mg administration twice a day.
Patients fulfilled with the inclusion criteria from the American Rheumatology Academy. Inclusion criteria were: • Symptomatic disease presence, defined as daily hip pain at least during the last two months. • A functional pain Lequesne index at least of 3 points. • Radiographic criteria were a joint space between 1 and 3 mm (without exceeding 3 mm) or less than 0.5 mm qf contralateral hip.
Joint hip space was measured through a prior pelvic radiography reading center, using a graded 0.1 mm magnification crystal. Start and end of treatment was radiographically assessed comparing the affected vs contralateral hip.
Laboratory analyses were carried out at the beginning of the study and on 6 months of treatment, assessing liver and kidney performance.

Compound: CC(=O)Nc1ccc(O)cc1 [Paracetamol]
- controlling pain in patients (pain): 40 % of patients

Compound: O=C(O)c1cc(O)c2c(c1)C(=O)c1cccc(O)c1C2=O [Rein, rein]
- bound to plasma proteins [1]: 99%

Compound: CC(=O)Oc1cccc2c1C(=O)c1c(OC(C)=O)cc(C(=O)O)cc1C2=O [Diacerein]
- slow action start, not significant until ([2]; after treatment): 4 weeks
- effect is maintained after having cancelled the treatment ([2]; in vivo): ≥ 2 months
- clearance half-life in plasma [3]: 5 to 7 h
- Patient percentage with radiographic progression (joint space loss at least of 0.5 mm) (patients with hip OA; Data from first laboratory analysis, P= 0.035): 51.6%
- Patient percentage with radiographic progression (joint space loss at least of 0.5 mm) (patients with hip OA; Data upon 6 month treatment completion, P= 0.006): 46.7%
- patients cancelled the treatment (because of inefficacy) (patients with hip OA; after two months of treatment (time printed for Group 1), forty patients per group, twice a day oral): 6 patients
- joint space, Average ± SD (patients with hip OA; at 6 months of treatment, hip): 0.17 ± 0.24 mm/6 months
